Among the data in ChEMBL document CHEMBL1130231, “Betidamino acid scan of the GnRH antagonist acyline” (J Med Chem, 1997) are ov. rat/total values, retold here.

The source made the active and inactive calls. The calls are words filed in the database; no cut-off is given here.

What all share (format): functional, organism-based
Assay [1] deals with Rattus norvegicus. As to the kind of experiment: Ratio of ovulated rats to total number of rats determined in a anti-ovulatory assay by administering 10 microg of compound; 4/8.
For assay [2], the system named is Rattus norvegicus. Briefly: Ratio of ovulated rats to total number of rats determined in a anti-ovulatory assay by administering 2.5 microg of compound; 7/8.
Assay [3] concerns Rattus norvegicus. Briefly: Ratio of ovulated rats to total number of rats determined in a anti-ovulatory assay by administering 100 microg of compound; 0/8.
Assay [4] deals with Rattus norvegicus. As to the kind of experiment: Ratio of ovulated rats to total number of rats determined in a anti-ovulatory assay by administering 50 microg of compound; 3/8.
Assay [5] has as its system Rattus norvegicus. As to the kind of experiment: Ratio of ovulated rats to total number of rats determined in a anti-ovulatory assay by administering 10 microg of compound; 3/7.
Assay [6] relates to Rattus norvegicus. Briefly: Ratio of ovulated rats to total number of rats determined in a anti-ovulatory assay by administering 25 microg of compound; 6/8.
Assay [7] deals with Rattus norvegicus. As to the kind of experiment: Ratio of ovulated rats to total number of rats determined in a anti-ovulatory assay by administering 10 microg of compound; 8/8.
Assay [8] relates to Rattus norvegicus. Briefly: Ratio of ovulated rats to total number of rats determined in a anti-ovulatory assay by administering 5 microg of compound; 4/8.
Assay [9] has as its system Rattus norvegicus. Briefly: Ratio of ovulated rats to total number of rats determined in a anti-ovulatory assay by administering 2.5 microg of compound; 0/8.
Assay [10] concerns Rattus norvegicus. Briefly: Ratio of ovulated rats to total number of rats determined in a anti-ovulatory assay by administering 1 microg of compound; 2/7.
For assay [11], the system named is Rattus norvegicus. Briefly: Ratio of ovulated rats to total number of rats determined in a anti-ovulatory assay by administering 2.5 microg of compound; 0/5.
The test system of assay [12] is Rattus norvegicus. Briefly: Ratio of ovulated rats to total number of rats determined in a anti-ovulatory assay by administering 1 microg of compound; 6/14.
The subject of assay [13] is Rattus norvegicus. As to the kind of experiment: Ratio of ovulated rats to total number of rats determined in a anti-ovulatory assay by administering 0.5 microg of compound; 5/8.
Assay [14] has as its system Rattus norvegicus. Briefly: Ratio of ovulated rats to total number of rats determined in a anti-ovulatory assay by administering 1 microg of compound; 0/8.
The subject of assay [15] is Rattus norvegicus. Briefly: Ratio of ovulated rats to total number of rats determined in a anti-ovulatory assay by administering 250 microg of compound; 8/9.
Assay [16] relates to Rattus norvegicus. Briefly: Ratio of ovulated rats to total number of rats determined in a anti-ovulatory assay by administering 2.5 microg of compound; 0/7.
Assay [17] deals with Rattus norvegicus. As to the kind of experiment: Ratio of ovulated rats to total number of rats determined in a anti-ovulatory assay by administering 1 ug of compound; 3/3.
For assay [18], the system named is Rattus norvegicus. Briefly: Ratio of ovulated rats to total number of rats determined in a anti-ovulatory assay by administering 2.5 microg of compound; 5/8.
The subject of assay [19] is Rattus norvegicus. Briefly: Ratio of ovulated rats to total number of rats determined in a anti-ovulatory assay by administering 1.0 microg of compound; 3/4.
Assay [20] has as its system Rattus norvegicus. Briefly: Ratio of ovulated rats to total number of rats determined in a anti-ovulatory assay by administering 2.5 microg of compound; 1/7.
Assay [21] concerns Rattus norvegicus. As to the kind of experiment: Ratio of ovulated rats to total number of rats determined in a anti-ovulatory assay by administering 5 microg of compound; 0/4.
Assay [22] concerns Rattus norvegicus. As to the kind of experiment: Ratio of ovulated rats to total number of rats determined in a anti-ovulatory assay by administering 5 microg of compound; 0/8.
Assay [23] relates to Rattus norvegicus. As to the kind of experiment: Ratio of ovulated rats to total number of rats determined in a anti-ovulatory assay by administering 1 ug of compound; 6/8.
The subject of assay [24] is Rattus norvegicus. Briefly: Ratio of ovulated rats to total number of rats determined in a anti-ovulatory assay by administering 250 microg of compound; 3/3.
Assay [25] deals with Rattus norvegicus. Briefly: Ratio of ovulated rats to total number of rats determined in a anti-ovulatory assay by administering 25 microg of compound; 0/3.
Assay [26] deals with Rattus norvegicus. Briefly: Ratio of ovulated rats to total number of rats determined in a anti-ovulatory assay by administering 10 microg of compound; 2/6.
Assay [27] has as its system Rattus norvegicus. As to the kind of experiment: Ratio of ovulated rats to total number of rats determined in a anti-ovulatory assay by administering 1 microg of compound; 5/13.
The test system of assay [28] is Rattus norvegicus. As to the kind of experiment: Ratio of ovulated rats to total number of rats determined in a anti-ovulatory assay by administering 0.5 microg of compound; 6/7.

Turning to `CC(=O)Nc1ccc(C[C@H](NC(=O)[C@H](CO)NC(=O)[C@@H](Cc2cccnc2)NC(=O)[C@@H](Cc2ccc(Cl)cc2)NC(=O)[C@@H](Cc2ccc3ccccc3c2)NC(C)=O)C(=O)N[C@H](Cc2ccc(NC(C)=O)cc2)C(=O)N[C@@H](CC(C)C)C(=O)N[C@@H](C(=O)N2CCC[C@@H]2C(=O)N[C@H](C)C(N)=O)N(C)C(=O)CCNC(C)C)cc1` (single isomer, unassigned), the ov. rat/total entry in the assay with Rattus norvegicus [1] is “Partially active”. Further, the ov. rat/total entry in the assay on Rattus norvegicus [2] was “inactive”.
On to `CC(=O)Nc1ccc(C[C@H](NC(=O)[C@H](CO)NC(=O)[C@@H](Cc2cccnc2)NC(=O)[C@H](NC(=O)[C@@H](Cc2ccc3ccccc3c2)NC(C)=O)N(C)C(=O)c2ccc(Cl)cc2)C(=O)N[C@H](Cc2ccc(NC(C)=O)cc2)C(=O)N[C@@H](CC(C)C)C(=O)N[C@@H](CCCCNC(C)C)C(=O)N2CCC[C@@H]2C(=O)N[C@H](C)C(N)=O)cc1`, for which the ov. rat/total result with Rattus norvegicus [3] was “Active”. Further, in the assay with Rattus norvegicus [4], the ov. rat/total result was “Partially active”.
With `CC(=O)Nc1ccc(C[C@H](NC(=O)[C@H](CO)NC(=O)[C@H](NC(=O)c2ccncc2)NC(=O)[C@@H](Cc2ccc(Cl)cc2)NC(=O)[C@@H](Cc2ccc3ccccc3c2)NC(C)=O)C(=O)N[C@H](Cc2ccc(NC(C)=O)cc2)C(=O)N[C@@H](CC(C)C)C(=O)N[C@@H](CCCCNC(C)C)C(=O)N2CCC[C@@H]2C(=O)N[C@H](C)C(N)=O)cc1` (single isomer, unassigned), the ov. rat/total result in the assay on Rattus norvegicus [5] is “Partially active”.
For the molecule `CC(=O)Nc1ccc(C[C@H](NC(=O)[C@H](CO)NC(=O)[C@@H](NC(=O)[C@@H](Cc2ccc(Cl)cc2)NC(=O)[C@@H](Cc2ccc3ccccc3c2)NC(C)=O)N(C)C(=O)c2cccnc2)C(=O)N[C@H](Cc2ccc(NC(C)=O)cc2)C(=O)N[C@@H](CC(C)C)C(=O)N[C@@H](CCCCNC(C)C)C(=O)N2CCC[C@@H]2C(=O)N[C@H](C)C(N)=O)cc1` (single isomer, unassigned), the ov. rat/total entry in the assay on Rattus norvegicus [6] and in the assay with Rattus norvegicus [7] was “inactive” in each case.
Turning to `CC(=O)Nc1ccc(C[C@H](NC(=O)[C@H](NC(=O)CO)NC(=O)[C@@H](Cc2cccnc2)NC(=O)[C@@H](Cc2ccc(Cl)cc2)NC(=O)[C@@H](Cc2ccc3ccccc3c2)NC(C)=O)C(=O)N[C@H](Cc2ccc(NC(C)=O)cc2)C(=O)N[C@@H](CC(C)C)C(=O)N[C@@H](CCCCNC(C)C)C(=O)N2CCC[C@@H]2C(=O)N[C@H](C)C(N)=O)cc1` (single isomer, unassigned), the ov. rat/total result with Rattus norvegicus [8] is “Partially active”.
Consider `CC(=O)Nc1ccc(C[C@H](NC(=O)[C@H](CO)NC(=O)[C@@H](Cc2cccnc2)NC(=O)[C@@H](Cc2ccc(Cl)cc2)NC(=O)[C@@H](NC(C)=O)NC(=O)c2ccc3ccccc3c2)C(=O)N[C@H](Cc2ccc(NC(C)=O)cc2)C(=O)N[C@@H](CC(C)C)C(=O)N[C@@H](CCCCNC(C)C)C(=O)N2CCC[C@@H]2C(=O)N[C@H](C)C(N)=O)cc1`, for which, in the assay on Rattus norvegicus [9], the ov. rat/total entry is “Active”. For the same molecule, the ov. rat/total entry in the assay on Rattus norvegicus [10] was “Partially active”.
`CC(=O)Nc1ccc(C[C@H](NC(=O)[C@H](CO)NC(=O)[C@@H](NC(=O)c2cccnc2)NC(=O)[C@@H](Cc2ccc(Cl)cc2)NC(=O)[C@@H](Cc2ccc3ccccc3c2)NC(C)=O)C(=O)N[C@H](Cc2ccc(NC(C)=O)cc2)C(=O)N[C@@H](CC(C)C)C(=O)N[C@@H](CCCCNC(C)C)C(=O)N2CCC[C@@H]2C(=O)N[C@H](C)C(N)=O)cc1`: the ov. rat/total entry with Rattus norvegicus [11] is “Active”. Besides, in the assay with Rattus norvegicus [12], the ov. rat/total result was “Partially active”.
As to `CC(=O)Nc1ccc(C[C@H](NC(=O)[C@H](CO)NC(=O)[C@@H](Cc2cccnc2)NC(=O)[C@@H](Cc2ccc(Cl)cc2)NC(=O)[C@@H](Cc2ccc3ccccc3c2)NC(C)=O)C(=O)N[C@H](Cc2ccc(NC(C)=O)cc2)C(=O)N[C@@H](CC(C)C)C(=O)N[C@H](C(=O)N2CCC[C@@H]2C(=O)N[C@H](C)C(N)=O)N(C)C(=O)CCNC(C)C)cc1` (single isomer, unassigned), the ov. rat/total entry in the assay with Rattus norvegicus [9] and in the assay on Rattus norvegicus [14] was “Active” throughout. Besides, the ov. rat/total result in the assay with Rattus norvegicus [13] is “Partially active”.
As for `CC(=O)Nc1ccc(C[C@H](NC(=O)[C@H](CO)NC(=O)[C@@H](Cc2cccnc2)NC(=O)[C@@H](NC(=O)c2c[nH]nc2N)NC(=O)[C@@H](Cc2ccc3ccccc3c2)NC(C)=O)C(=O)N[C@H](Cc2ccc(NC(C)=O)cc2)C(=O)N[C@@H](CC(C)C)C(=O)N[C@@H](CCCCNC(C)C)C(=O)N2CCC[C@@H]2C(=O)N[C@H](C)C(N)=O)cc1` (single isomer, unassigned), the ov. rat/total result in the assay on Rattus norvegicus [15] is “inactive”.
For the molecule `CC(=O)Nc1ccc(C[C@H](NC(=O)[C@H](CO)NC(=O)[C@H](NC(=O)c2cccnc2)NC(=O)[C@@H](Cc2ccc(Cl)cc2)NC(=O)[C@@H](Cc2ccc3ccccc3c2)NC(C)=O)C(=O)N[C@H](Cc2ccc(NC(C)=O)cc2)C(=O)N[C@@H](CC(C)C)C(=O)N[C@@H](CCCCNC(C)C)C(=O)N2CCC[C@@H]2C(=O)N[C@H](C)C(N)=O)cc1`, the ov. rat/total entry with Rattus norvegicus [16] is “Active”. For the same molecule, in the assay on Rattus norvegicus [17], the ov. rat/total entry was “inactive”.
Take `CC(=O)Nc1ccc(C[C@H](NC(=O)[C@@H](NC(=O)[C@@H](Cc2cccnc2)NC(=O)[C@@H](Cc2ccc(Cl)cc2)NC(=O)[C@@H](Cc2ccc3ccccc3c2)NC(C)=O)N(C)C=O)C(=O)N[C@H](Cc2ccc(NC(C)=O)cc2)C(=O)N[C@@H](CC(C)C)C(=O)N[C@@H](CCCCNC(C)C)C(=O)N2CCC[C@@H]2C(=O)N[C@H](C)C(N)=O)cc1` (single isomer, unassigned): in the assay on Rattus norvegicus [18], the ov. rat/total entry was “Partially active”.
For `CC(=O)Nc1ccc(C[C@H](NC(=O)[C@H](CO)NC(=O)[C@@H](Cc2cccnc2)NC(=O)[C@@H](Cc2ccc(Cl)cc2)NC(=O)[C@@H](Cc2ccc3ccccc3c2)NC(C)=O)C(=O)N[C@H](Cc2ccc(NC(C)=O)cc2)C(=O)N[C@@H](CC(C)C)C(=O)NC(NC(=O)CN=C(N)N)C(=O)N2CCC[C@@H]2C(=O)N[C@H](C)C(N)=O)cc1` (stereo not given in full), the ov. rat/total result in the assay on Rattus norvegicus [19] was “inactive”. Moreover, the ov. rat/total result in the assay on Rattus norvegicus [20] and with Rattus norvegicus [21] was “Active” each time.
With `CC(=O)Nc1ccc(C[C@H](NC(=O)[C@H](NC=O)NC(=O)[C@@H](Cc2cccnc2)NC(=O)[C@@H](Cc2ccc(Cl)cc2)NC(=O)[C@@H](Cc2ccc3ccccc3c2)NC(C)=O)C(=O)N[C@H](Cc2ccc(NC(C)=O)cc2)C(=O)N[C@@H](CC(C)C)C(=O)N[C@@H](CCCCNC(C)C)C(=O)N2CCC[C@@H]2C(=O)N[C@H](C)C(N)=O)cc1`, the ov. rat/total entry in the assay on Rattus norvegicus [22] was “Active”. Also, the ov. rat/total result in the assay with Rattus norvegicus [23] was “inactive”.
On to `CC(=O)Nc1ccc(C[C@H](NC(=O)[C@H](CO)NC(=O)[C@@H](Cc2cccnc2)NC(=O)[C@H](NC(=O)c2cnccn2)NC(=O)[C@@H](Cc2ccc3ccccc3c2)NC(C)=O)C(=O)N[C@H](Cc2ccc(NC(C)=O)cc2)C(=O)N[C@@H](CC(C)C)C(=O)N[C@@H](CCCCNC(C)C)C(=O)N2CCC[C@@H]2C(=O)N[C@H](C)C(N)=O)cc1` (single isomer, unassigned), for which, in the assay on Rattus norvegicus [24], the ov. rat/total entry was “inactive”.
For `CC(=O)Nc1ccc(C[C@H](NC(=O)[C@H](CO)NC(=O)[C@@H](Cc2cccnc2)NC(=O)[C@@H](Cc2ccc(Cl)cc2)NC(=O)[C@H](Cc2ccc3ccccc3c2)NC(C)=O)C(=O)N[C@H](Cc2ccc(NC(C)=O)cc2)C(=O)N[C@@H](CC(C)C)C(=O)N[C@@H](CCCCNC(C)C)C(=O)N2CCC[C@@H]2C(=O)N[C@H](C)C(N)=O)cc1`, in the assay on Rattus norvegicus [25], the ov. rat/total result is “Active”. Further, the ov. rat/total result with Rattus norvegicus [26] was “Partially active”.
As to `CC(=O)Nc1ccc(C[C@H](NC(=O)[C@H](CO)NC(=O)[C@@H](Cc2cccnc2)NC(=O)[C@@H](Cc2ccc(Cl)cc2)NC(=O)[C@@H](Cc2ccc3ccccc3c2)NC(C)=O)C(=O)N[C@H](Cc2ccc(NC(C)=O)cc2)C(=O)N[C@@H](CC(C)C)C(=O)N[C@@H](CCCCNC(C)C)C(=O)N2CCC[C@@H]2C(=O)N[C@H](C)C(N)=O)cc1`, the ov. rat/total entry in the assay on Rattus norvegicus [16] is “Active”. The ov. rat/total result with Rattus norvegicus [27] is “Partially active”. Further, in the assay on Rattus norvegicus [28], the ov. rat/total result is “inactive”.
